Legend:
CYP2D6 = biological target: T1, CYP2D6 (Homo sapiens, UniProt P10635); assay: CYP inhibition assay (Invitrogen P2862 kit); assay type: in vitro ADME; conditions: 10 µM
T1 construct: purchased Invitrogen P2862
Source text: CYP enzymes play a major role in the metabolism of drugs. Depending on the inhibition activity of the CYP enzymes, the dose of the drugs and toxicity due to the co-administration of other drugs can be predicted. Therefore, we have measured the inhibitory activity for CYP3A4, CYP2C9, CYP1A2, CYP2D6 and CYP2C19 enzymes present in the body using the compounds of the present invention. Invitrogen P2862 kit was used for CYP2D6 inhibition assay, and BD GENTEST (459100, 459300, 459400, 459500) kits were used for CYP1A2, CYP2C9, CYP2C19 and CYP3A4 inhibition assay. In case of Invitrogen kit, the test materials were diluted in distilled water into 2.5× of the final test concentration.
P450 BACULOSOMES® reagent and regeneration device (100×) provided by the Invitrogen kit were diluted in the Vivid® reaction buffer (2×) into the appropriate concentration for the type of CYP450. After mixing 80 μl of the 2.5× test material and 100 μl of the mixture of the diluted P450 BACULOSOMES® reagent in U-bottom 96-well plate, the resulting mixture was pre-incubated for 20 minutes. Vivid® CYP450 substrate and NADP+ (100×) were diluted in the Vivid® CYP450 reaction buffer (2×) into the appropriate concentration for the types of CYP450 and the substrates. After completion of the pre-incubation, 20/l of the substrate-NADP (nicotinamide adenine dinucleotide phosphate) mixture was added, and then incubated for 1 hour. After completion of the reaction, the reactants were transferred to the white plates, and fluorescence values were measured using a micro-plate reader (Excitation and absorption wavelengths of CYP2D6 were 400 nm and 502 nm, respectively).
The measured values were converted into the inhibition percent of the test materials as compared to the value of the untreated control, and the results were summarized in Table 5.

[1] = system: diet-induced obesity (DIO) C57BL/6J mice; assay: OGTT in diet-induced obesity (DIO) mice at the end of 4-week administration; assay type: in vivo; conditions: glucose 4 g/kg 30 minutes later
Procedure: To simultaneously evaluate both the weight-loss and hypoglycemic effects of the cyclohexene derivative according to the present invention, experiments were carried out, as follows.
Specifically, male C57BL/6J mice (approximately 4 weeks old) in a diet-induced obesity model were fed with a high-fat diet (Lab. Diet Co.) for approximately 12 weeks to induce high-fat diet-induced obesity (DIO). The mice undergoing the high-fat diet were randomly selected, and divided into groups (n=8) for respective administrations.
The weights of the DIO mice were measured twice a week during a period of administration of 4 weeks to record a change in the weights. At the end of the 4-week period of administration, a hypoglycemic effect was evaluated using an oral glucose tolerance test (OGTT), as follows.
Specifically, the compound (+)-(4-(4-((1-(5-ethylpyrimidin-2-yl)piperidin-4-yl)methoxy)phenyl)cyclohex-3-enyl)((R)-2-(hydroxymethyl)pyrrolidin-1-yl)methanone or (−)-(4-(4-((1-(5-ethylpyrimidin-2-yl)piperidin-4-yl)methoxy)phenyl)cyclohex-3-enyl)((R)-2-(hydroxymethyl)pyrrolidin-1-yl)methanone prepared in Example 290 or 291 was orally administered at a dose of 10 to 20 mg/kg. […] A blood glucose level was determined using an Accu-Chek Active Strip (Roche diagnostic Co.). […]

NCI-H716 cells = assay: Promotion of glucagon-like peptide-1 (GLP-1) secretion (ELISA); assay type: cell-based, human; conditions: 1, 10, 30 μM
Procedure: To evaluate an effect of the cyclohexene derivative according to the present invention on promotion of glucagon-like peptide-1 (GLP-1) secretion, experiments were carried out, as follows.
NCI-H716 cells that were human enterocytes were plated on 12 wells at 1×10^6 cells per well. After 48 hours, the cells were starved in serum-free media for 2 hours, and treated with a varying concentration of siptagliptin that was a dipeptidyl peptidase-IV (DPP-IV) inhibitor, and the compounds of Comparative Example 1 (1, 10, 30 μM), Comparative Example 5 (10 μM), Example 48 (1, 10, 30 μM), and Example 291 (1, 10, 30 μM). After an hour, supernatants are recovered to determine an amount of the secreted GLP-1 peptide. The GLP-1 measurement was performed using an enzyme-linked immunosorbant assay (ELISA; Millipore, EGLP-35K), and the amount of the secreted GLP-1 peptide was indicated by the unit “pM”.

T1 sequence (P10635 whole entry): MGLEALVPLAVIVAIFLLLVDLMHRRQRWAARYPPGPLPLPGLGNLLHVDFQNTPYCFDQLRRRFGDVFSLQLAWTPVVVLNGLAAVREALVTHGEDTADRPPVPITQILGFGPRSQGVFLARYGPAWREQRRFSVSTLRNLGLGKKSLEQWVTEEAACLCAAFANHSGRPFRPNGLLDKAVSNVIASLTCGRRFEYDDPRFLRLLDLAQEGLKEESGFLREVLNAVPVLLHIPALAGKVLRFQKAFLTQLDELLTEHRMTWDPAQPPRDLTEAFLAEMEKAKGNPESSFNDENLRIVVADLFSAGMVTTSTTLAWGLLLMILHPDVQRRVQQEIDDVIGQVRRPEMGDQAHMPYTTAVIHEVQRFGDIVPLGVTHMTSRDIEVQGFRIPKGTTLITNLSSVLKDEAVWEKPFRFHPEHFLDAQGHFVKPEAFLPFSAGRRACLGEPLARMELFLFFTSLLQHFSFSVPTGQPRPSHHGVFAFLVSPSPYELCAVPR

## CCc1cnc(N2CCC(COc3ccc(C4=CCC(C(=O)N5CCC[C@@H]5CO)CC4)cc3)CC2)nc1 (single isomer, unassigned; (-)) [Example 291]
CYP2D6
  CYP inhibition (% at 10 μM) 2D6: 2.49%
[1]; 10 mg/kg oral
  % AUC (hypoglycemic level): 16.2 % AUC
[1]; 20 mg/kg oral
  % AUC (hypoglycemic level): 17.6 % AUC
NCI-H716 cells
  GLP-1 secretion relative to the untreated group: approximately 1.8 times
